Assay: molar heat capacity at constant pressure
Settings: 101 kPa, Liquid, Small sample (50 mg) DSC

CCC(N)(CO)CO [2-amino-2-ethyl-1,3-propanediol]
Settings | molar heat capacity at constant pressure [J/K/mol]
303.15 K | 367.5
308.15 K | 370.5
313.15 K | 374.1
318.15 K | 378
323.15 K | 381.5
328.15 K | 385.8
333.15 K | 389.9
338.15 K | 393.9
343.15 K | 398.6
348.15 K | 403.1
353.15 K | 408.2

Source: the NIST ThermoML archive (doi:10.1016/j.fluid.2013.12.017)
